In US6821994B2, “Carboxylic acid derivative and a pharmaceutical composition containing the derivative as active ingredient” (Ono Pharmaceutical Co., Ltd., priority 1998, dated 2004):

Legend:
[1] = molecular target: T1, human PPARα (Homo sapiens, UniProt Q07869); assay: Luciferase assay using human PPARα (Gal4-PPARα ligand binding domain chimeric receptor, CV-1 host cells); format: cell-based; details: PPARα agonistic activity; compound 10 μM; luciferase activity of carbacyclin (10 μM) defined as 1.0; CV-1 cells
T1 construct: expressed in transfected cells; host or cells: CV-1 cells
T1 sequence (Q07869 167-468): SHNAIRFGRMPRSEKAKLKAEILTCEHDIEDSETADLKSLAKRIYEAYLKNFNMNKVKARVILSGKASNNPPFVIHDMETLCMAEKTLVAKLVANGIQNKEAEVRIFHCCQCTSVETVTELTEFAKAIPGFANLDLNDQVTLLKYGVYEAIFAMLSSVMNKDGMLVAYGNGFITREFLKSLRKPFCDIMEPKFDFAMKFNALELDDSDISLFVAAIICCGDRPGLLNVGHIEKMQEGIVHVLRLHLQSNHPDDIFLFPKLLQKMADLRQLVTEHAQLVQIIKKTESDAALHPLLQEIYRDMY

[2] = molecular target: T2, human PPARγ (Homo sapiens, UniProt P37231); assay: Luciferase assay using human PPARγ (Gal4-PPARγ ligand binding domain chimeric receptor, CV-1 host cells); format: cell-based; details: PPARγ agonistic activity; compound 10 μM; luciferase activity of troglitazone (10 μM) defined as 1.0; CV-1 cells
T2 construct: expressed in transfected cells; host or cells: CV-1 cells
T2 sequence (P37231 204-505): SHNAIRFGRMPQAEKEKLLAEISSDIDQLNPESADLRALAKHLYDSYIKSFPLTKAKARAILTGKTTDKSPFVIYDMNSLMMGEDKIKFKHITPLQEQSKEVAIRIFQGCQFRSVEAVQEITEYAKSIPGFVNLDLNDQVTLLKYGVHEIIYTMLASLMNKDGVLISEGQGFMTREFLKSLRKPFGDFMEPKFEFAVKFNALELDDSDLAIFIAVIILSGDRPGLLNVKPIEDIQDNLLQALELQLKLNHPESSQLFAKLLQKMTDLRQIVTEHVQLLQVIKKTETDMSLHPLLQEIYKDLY

[3] = system: KKAy/Ta mice; assay: Hypoglycemic and hypolipidemic effects in KKAy/Ta mice; format: in vivo; details: male KKAy/Ta mice, food mixture containing 0.03% (w/w) compound (43-47 mg/kg/day conversion value), 4 days; for TG level: control 439 ± 234; for blood sugar level: control 520 ± 147
Source text: Male, 7-weeks old KKAy/Ta mice weighed from 35 to 40 g (five mice per group) were pre-breaded for approximately one week and acclimatized for three days on milled diet. On the first day of the experiment (Day 0), mice were divided into some groups according to weight, plasma glucose and triglyceride (TG) levels to minimize the differences among groups. […] At 13:00 of the third day, blood samples were collected to measure glucose and TG levels. Additionally, there was no significant difference in the food intake between control group (milled diet only) and compounds-treated group (milled diet containing 0.03% compounds).

[4] = system: SD rats; assay: Hypocholesterolemic and hypolipidemic effects in SD rats given hypercholesterolemic food; format: in vivo; details: male SD rats, orally in 0.5% CMC, then hypercholesterolemic food, blood at 9:00 of the next day; for IG level: control 163 ± 18; for IC level: control 167 ± 13; for NEFA level: control 615 ± 80
Source text: Male, six-weeks old SD rats (five rats per group) were left to take milled diet and water ad libitum and were acclimatized for 1 week.
At 9:00 on the first day of the experiment (Day 0), blood sampling was done from tail vein. The rats were divided into some groups according to body weight, triglyceride (TG), non-esterified fatty acid (NEFA) and total cholesterol (TC) levels to minimize differences of the parameters among the groups. At 17:00 of the day, the compound of the present invention dissolved in 0.5% aqueous solution of carboxymethylcellulose (CMC) was orally administered, and thereafter, with hypercholesterolemic food (5.5% peanut oil, 1.5% cholesterol and 0.5% cholic acid were mixed with milled CRF-1 diet, Charles River Inc.) was given to the rats.
At 9:00 of the next day, blood sampling was done from tail vein. The lipid levels in blood (TG, NEFA and TC levels) after administration of the compounds of the present invention were measured. There was no significant difference of the food intake between the control group (provided only 0.5% CMC) and the group treated with the compounds of the present invention.

In the case of `Cc1oc(-c2ccc3c(c2)OCO3)nc1Cc1ccc(/C=C/CSCC(=O)O)o1` [Example 3(2), 2-((2E) -3-(5-(5-methyl-2-(1,3-dioxaindan-5-yl)oxazol-4-ylmethyl)furan-2-yl)-2-propenylthio)acetic acid], the “Relative Activity to a positive control compound (carbacyclin = 1)” value (from here on “Relative Activity … (carbacyclin = 1)”) [1] is reported as 3.1, the “Relative Activity to a positive control compound (troglitazone = 1)” value (from here on “Relative Activity … (troglitazone = 1)”) [2] is reported as 2.3 and the TG level [3] is reported as 45 ± 12 mg/dL. It also gave a blood sugar level [3] of 243 ± 37 mg/dL, an IG level [4] of 62 ± 7 mg/dL and an IC level [4] of 86 ± 6 mg/dL. For the same compound, the NEFA level [4] was 145 ± 18 µEq/l.

For `Cc1oc(-c2ccccc2)nc1Cc1ccc(/C=C/CSCC(=O)O)o1` [Example 3, 2-((2E)-3-(5-(5-methyl-2-phenyloxazol-4-ylmethyl)furan-2-yl)-2-propenylthio)acetic acid], the “Relative Activity … (carbacyclin = 1)” value [1] was 2.6, the “Relative Activity … (troglitazone = 1)” value [2] was 2.3 and the TG level [3] was 43 ± 12 mg/dL. It also gave a blood sugar level [3] of 260 ± 37 mg/dL, an IG level [4] of 73 ± 7 mg/dL and an IC level [4] of 87 ± 5 mg/dL. It also gave an NEFA level [4] of 207 ± 25 µEq/l.

`Cc1ccc(-c2nc(Cc3ccc(/C=C/CSCC(=O)O)o3)c(C)o2)cc1` [Example 3(1), 2-((2E)-3-(5-(5-methyl-2-(4-methylphenyl)oxazol-4-ylmethyl)furan-2-yl)-2-propenylthio)acetic acid] was tested, and the “Relative Activity … (carbacyclin = 1)” value [1] was 1.5, the “Relative Activity … (troglitazone = 1)” value [2] was 1.1 and the TG level [3] was 44 ± 11 mg/dL. It also gave a blood sugar level [3] of 253 ± 27 mg/dL, an IG level [4] of 92 ± 26 mg/dL and an IC level [4] of 107 ± 4 mg/dL. For the same compound, the NEFA level [4] was 394 ± 49 µEq/l.

In the case of `CCc1ccc(-c2nc(Cc3ccc(/C=C/CSCC(=O)O)o3)c(C)o2)cc1` [Example 3(3), 2-((2E)-3-(5-(5-methyl-2-(4-ethylphenyl)oxazol-4-ylmethyl)furan-2-yl)-2-propenylthio)acetic acid], the “Relative Activity … (carbacyclin = 1)” value [1] is reported as 1.8, the “Relative Activity … (troglitazone = 1)” value [2] is reported as 2.2 and the TG level [3] is reported as 31 ± 15 mg/dL. It also gave a blood sugar level [3] of 234 ± 31 mg/dL, an IG level [4] of 79 ± 12 mg/dL and an IC level [4] of 91 ± 4 mg/dL. For the same compound, the NEFA level [4] was 213 ± 31 µEq/l.
